Measured values: PMC5215686 (Journal of medicinal chemistry, 2016)
Where “and” joins values, the source holds several entries; their conditions need not be identical. Identical values can stand only once.

Key:
Sprague-Dawley rats = assay: Vogel conflict test; assay type: in vivo; details: rat
[1] = Plasma and brain exposure after dosing in rats; assay type: in vivo, Sprague-Dawley rats; details: rat; for Plasma exposure in words: i.v. (1 mg/kg) or p.o. (10 mg/kg); for Total Plasma Concentration, 15 min / Total Plasma Concentration, 30 min / Total Plasma Concentration, 60 min / Brain concentration of dosed ligand, 120 min / Total Plasma Concentration, 120 min / Brain concentration of dosed ligand, 60 min: p.o. 10 mg/kg; for Total Plasma Concentration, 15 min / Total Plasma Concentration, 30 min / Total Plasma Concentration, 60 min / Brain concentration of dosed ligand, 120 min / Total Plasma Concentration, 120 min: BQL: quantifiable limit < 12.2 nM
[2] = Solubility by light scattering; assay type: physicochemical; details: pH=7, by light scattering
NIH Swiss Webster mice [3] = assay: Rotarod assay; assay type: in vivo; details: 4 r.p.m., 2 min; for Rotarod motorsensory behavior, 10 mg/kg: i.p. 10 mg/kg
[4] = Rat pharmacokinetics i.v. and i.p., plasma and brain concentrations; assay type: in vivo, Sprague-Dawley rats
HEK293T cells = assay: Cytotoxicity, CellTiter-Glo; assay type: cell-based, human; details: for Cytotoxicity in words: 18 h, 100 μM; for Cytotoxicity (18 h) LD50: CellTiter-Glo, n = 4
NIH Swiss Webster mice [5] = assay: Marble burying assay; assay type: in vivo

SMILES: CNC1=Nc2ccc(Cl)cc2C(c2ccccc2)=[N+]([O-])C1 [CDAP, chlordiazepoxide, reference compound]
- Vogel conflict, response rate in the unpunished session, 20 mg/kg (Sprague-Dawley rats; 20 mg/kg i.p.): Neither
- Vogel conflict, punished response over control, 20 mg/kg (Sprague-Dawley rats; 20 mg/kg i.p., P < 0.05): 330%

SMILES: [2H]C([2H])(C)OC(=O)c1ncn2c1CN=C(c1ccccn1)c1cc(C#C)ccc1-2 [compound 5]
- Plasma exposure in words [1]: poor
- Total Plasma Concentration, 15 min [1]: BQL ^c
- Total Plasma Concentration, 30 min [1]: BQL ^c
- Total Plasma Concentration, 60 min [1]: BQL ^c
- Brain concentration of dosed ligand, 120 min [1]: (120) BQL ^c
- Total Plasma Concentration, 120 min [1]: BQL ^c

SMILES: C#Cc1ccc2c(c1)C(c1ccccn1)=NCc1c(-c3cnco3)ncn1-2 [compound 9, 5-(8-Ethynyl-6-(pyridin-2-yl)-4H-benzo[f]imidazo[1,5-a][1,4]diazepin-3-yl)oxazole]
- solubility [2]: good
- Rotarod failures, 30 mg/kg (NIH Swiss Webster mice [3]; i.p. 30 mg/kg): zero failures
- Rotarod performance / ataxia, 30 mg/kg (NIH Swiss Webster mice [3]; i.p. 30 mg/kg): did not significantly alter rotarod performance compared to vehicle
- Vogel conflict, punished response vs. control, 3 mg/kg (Sprague-Dawley rats; 3 mg/kg i.p., 30 min pretreatment): no increase in response
- Vogel conflict, increase of punished response rate over control, 30 mg/kg (Sprague-Dawley rats; 30 mg/kg i.p., 30 min pretreatment): about 220%
- time of Cmax ([4]; 10 mg/kg i.p.): 2.0 h
- Unbound Concentration (Cu), Brain ([4]; 4 hours after 10 mg/kg i.p., free fraction x total concentration): 363 nM
- Cytotoxicity in words (HEK293T cells): non-toxic
- Brain concentration of dosed ligand, 60 min [1]: (60) 3640 nM

SMILES: C#Cc1ccc2c(c1)C(c1ccccc1F)=NCc1c(-c3cnco3)ncn1-2 [compound 10]
- Rotarod motorsensory behavior, 10 mg/kg (NIH Swiss Webster mice [3]): very minor impairment
- Cytotoxicity (18 h) LD50 (HEK293T cells): 61.5 µM and 61.5 ± 10 µM

SMILES: C#Cc1ccc2c(c1)C(c1ccccn1)=NCc1c(-c3nc(C)no3)ncn1-2 [compound 6]
- Rotarod motorsensory behavior, 10 mg/kg (NIH Swiss Webster mice [3]): very minor impairment
- Cytotoxicity in words (HEK293T cells): non-toxic

SMILES: C#Cc1ccc2c(c1)C(c1ccccn1)=NCc1c(-c3nc(CC)no3)ncn1-2 [compound 7]
- Marble burying vs. vehicle, 10 mg/kg (NIH Swiss Webster mice [5]; i.p. 10 mg/kg, 30 min prior to testing): significant reduction
- Sedation-like behavior observed in marble burying (NIH Swiss Webster mice [5]; i.p. 30 mg/kg): weak signs of sedation
- Cytotoxicity in words (HEK293T cells): non-toxic
- Brain concentration of dosed ligand, 60 min [1]: (60) 3090 nM

SMILES: C#Cc1ccc2c(c1)C(c1ccccn1)=NCc1c(C(=O)O)ncn1-2 [compound 4]
- Brain concentration of dosed ligand, 120 min [1]: (120) BQL ^c

SMILES: C#Cc1ccc2c(c1)C(c1ccccc1)=NCc1c(-c3cnco3)ncn1-2 [compound 8]
- Cytotoxicity (18 h) LD50 (HEK293T cells): 66.8 µM and 66.8 ± 9 µM

SMILES: C#Cc1ccc2c(c1)C(c1ccccn1)=NCc1c(C(=O)OCC)ncn1-2 [compound 2]
- Vogel conflict, difference from vehicle in words, 30 mg/kg (Sprague-Dawley rats; 30 mg/kg i.p.): no discernable difference
- Cytotoxicity in words (HEK293T cells): non-toxic
- Plasma exposure in words [1]: poor
- Total Plasma Concentration, 15 min [1]: BQL ^c
- Total Plasma Concentration, 30 min [1]: BQL ^c
- Total Plasma Concentration, 60 min [1]: BQL ^c
- Brain concentration of dosed ligand, 120 min [1]: (120) BQL ^c
- Total Plasma Concentration, 120 min [1]: BQL ^c
